Results on 1 compound are retold here after patent publication US20160274087A1, “SCREENING ASSAY FOR AGENTS THAT INFLUENCE BETA CELL NUMBER AND/OR PHENOTYPE” (VRIJE UNIVERSITEIT BRUSSEL, priority 2013, published 2016).

One assay concerns rat beta cells. The experiment in a line: Number of living beta cells in culture (Hoechst 33342/propidium iodide whole-well imaging counts; expansion assay). In kind it is cell-based. As for the experimental part: Beta cells were FACS-purified from islet-cell enriched suspensions (Pipeleers et al., 1985) prepared from neonatal (2-3 days-old) and adolescent or adult (8 or 40-week-old, male) Wistar rats (Janvier Bioservices, France); their purity was, respectively 70-75% and over 90%. Sorted cells were counted in a hemocytometer, seeded (day 0) and cultured for up to 15 days in serum-free Ham's-F10 medium at 5, 10 or 20 mmol/l glucose, supplemented with 2 mmol/l L-glutamine, 50 μM 3-isobutyl-1-methylxanthine, 0.5% Albumax-I, penicillin (100 U/ml) and streptomycin (0.1 mg/ml). The 10 mmol/l glucose condition is known to maintain beta cell survival over 9-days (Ling et al., 1994; Ling and Pipeleers, 1994). Medium and cells were retrieved after selected culture periods and assayed for insulin content; data were expressed as a function of the number of living beta cells that was determined in parallel wells.
On day 1, 9 and 15 of culture, total numbers of living beta cells per well were determined by semi-automatic cell count, after Hoechst 33342 (Ho) and propidium iodide (PI) staining. Numbers of living beta cells were obtained by subtracting the PI-positive cell numbers from the Ho-positive cell numbers, and correcting for the percent insulin-negative cells, as determined following insulin-immunofluorescence staining. They were expressed as percent of the numbers on day 1. Each condition was also evaluated for increases in the percentage of proliferating beta cells (incorporating the thymidine-analogue 5-ethynyl-2′-deoxyuridine, EdU; 100 μmol/l). To detect beta cells that underwent two successive cycles, cells were sequentially exposed to two different thymidine-analogs, first EdU from day 3 to 6, and then BrdU (100 μmol/l) from day 7 to 10, with a 24-hour label-free period in between. EdU-positive (EdU^+) nuclei were detected with the Click-iT Assay kit (Invitrogen), while BrdU-positive (BrdU^+) nuclei were identified with anti-BrdU antibody.
Absolute number of cells was determined by whole-well imaging using the BD-PathwayBioimager855 (BD-Biosciences). IPLab and AttoVision software packages (BD-Biosciences) were used for image background subtraction, segmentation and quantification.
Experimental procedures for isolation of beta cells from neonatal (2-3 days old) and adult (8 or 40 week old, male) Wistar rats (Janvier Bioservices, France) and analysis of their number, viability and proliferation activity in culture have been described before (Assefa et al., 2014). Sorted beta cells were seeded in 804G matrix-coated plates (designated as day 0) and the numbers and viability of seeded cells at the start of all experiments were determined on day 1 (24 h after seeding). The cells were cultured in control medium, which is a serum-free Ham's F10 medium supplemented with 2 mM L-glutamine, 50 μM 3-isobutyl-1-methylxanthine, 0.5% Albumax I, penicillin (100 U/ml), streptomycin (0.1 mg/ml) and, unless indicated otherwise, 10 mM glucose.
Sorted beta cells were seeded in 384-well or 6-well plates coated with 804G matrix, and kept in culture for up to 15 days at 37° C. 5% CO2 using Ham F10 supplemented with 1 mM L-glutamine, 0.1 mg/ml streptomycin, 0.075 mg/ml penicillin, 50 μM of isobutyl-1-methylxanthine (IBMX) at 10 mM D-glucose with and without synthetic GCs (6 methyl-prednisolone (6MP), dexamethasone (DEX), GR-modulators (compound A (CPA), mifepristone (MIF), and NFκB inhibitors (JSH-23 en Bay11-7085). Total cell number and beta cell viability was evaluated after incubation with Hoechst 33342 and propidium iodide. All chemicals were from Sigma Life Sciences or Merck. Quantification of cell numbers and analysis of beta-cell viability was done using the Pathway Bioimager (BD Biosciences) and using IPlab and Attovision software for background subtraction as described prior (Assefa et al., 2014).

In assay [1] the target is T1, glucocorticoid receptor (GR) (Homo sapiens, UniProt P04150).
T1 sequence (P04150 1-777): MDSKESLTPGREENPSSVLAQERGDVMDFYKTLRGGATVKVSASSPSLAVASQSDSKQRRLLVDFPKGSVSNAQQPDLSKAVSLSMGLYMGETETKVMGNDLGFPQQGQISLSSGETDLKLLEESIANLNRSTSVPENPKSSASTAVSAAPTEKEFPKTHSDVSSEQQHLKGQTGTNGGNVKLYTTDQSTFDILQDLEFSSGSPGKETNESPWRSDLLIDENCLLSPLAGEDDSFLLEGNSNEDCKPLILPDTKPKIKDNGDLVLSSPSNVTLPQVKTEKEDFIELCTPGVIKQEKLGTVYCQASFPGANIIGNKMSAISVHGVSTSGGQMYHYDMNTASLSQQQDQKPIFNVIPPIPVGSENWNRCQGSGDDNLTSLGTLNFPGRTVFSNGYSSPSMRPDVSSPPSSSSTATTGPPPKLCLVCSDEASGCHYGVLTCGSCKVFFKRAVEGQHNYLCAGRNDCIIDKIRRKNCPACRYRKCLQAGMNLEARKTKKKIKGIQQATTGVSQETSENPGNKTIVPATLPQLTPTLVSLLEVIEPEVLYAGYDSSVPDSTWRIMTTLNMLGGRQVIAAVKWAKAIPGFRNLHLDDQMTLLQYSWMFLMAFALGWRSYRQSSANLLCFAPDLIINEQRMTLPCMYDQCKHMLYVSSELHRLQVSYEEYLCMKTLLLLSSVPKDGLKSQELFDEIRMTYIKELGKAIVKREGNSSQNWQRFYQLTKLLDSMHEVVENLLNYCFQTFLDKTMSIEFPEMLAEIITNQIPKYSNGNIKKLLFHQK
To be noted: cited from earlier work.

Consider `C[C@]12CCC(=O)C=C1CC[C@@H]1[C@@H]2[C@@H](O)C[C@@]2(C)[C@H]1CC[C@]2(O)C(=O)CO` [Hydrocortisone, hydrocortisone], for which the “Number of Living Cells on Day 15 (% of Day 1)” value with rat beta cells (9 days, HC, 6 days, control) was 168.1 ± 6.8 % of Day 1; in the assay with rat beta cells (15 days, HC (Table 7), control 102.5 ± 6.1) it was 173.9 ± 7.1 % of Day 1; in the assay with rat beta cells (HC alone, 15 days (Table 6)), 156 ± 4 % of Day 1; with rat beta cells (HC, glucose 7.5 high-responsive cells, control 99.0 ± 1.5) it was 182.0 ± 4.9 % of Day 1; in the assay on rat beta cells (HC, glucose 7.5 low-responsive cells, control 94.0 ± 9.2), 117.3 ± 5.2 % of Day 1; in the assay on rat beta cells (HC, mixed beta cell population, control 110.7 ± 5.0) it was 169.0 ± 9.3 % of Day 1. In addition, the “increase in absolute number of living beta cells in culture” value in the assay with rat beta cells (two-weeks culture) was “near population doubling”. For the same compound, the “Relative Potencies GR” value in assay [1] is given as 1.
